Results from patent US20230255943A1, “MMP-9 AND MMP-12 INHIBITION FOR TREATING SPINAL CORD INJURY OR RELATED INJURY TO NEUROLOGICAL TISSUE” (The University of Birmingham, priority 2020, published 2023).

Columns and labels:
[1] = tested on: mice with DC crush injury; assay: Spinal cord water content (oedema) after DC crush injury in mice; assay type: in vivo, mouse; settings: 3 days after DC injury; doses and routes of Table 1; vs DC+vehicle
Method: For oral delivery of AZD1236, n=6 adult male C57BL6 mice/group (Charles River, Margate, UK) were randomly allocated to either: (1), Sham (control; partial laminectomy but no DC crush injury); (2), DC crush injury+vehicle (partial laminectomy followed by DC crush injury and injection of vehicle); (3), DC crush injury+100 mg/kg AZD1236; (4), DC crush injury+200 mg/kg AZD1236; and (5), DC crush injury+300 mg/kg AZD1236. For intrathecal (it) delivery of AZD1236, adult male C57BL6 mice (25-30 g) (Charles River, Margate, UK) were randomly allocated to either: (1), Sham (control; partial laminectomy but no DC crush injury); (2), DC crush injury+vehicle (partial laminectomy followed by DC crush injury and injection of vehicle); (3), DC crush injury+2.5 mg/kg AZD1236; (4), DC crush injury+5 mg/kg AZD1236; and (5), DC crush injury+10 mg/kg AZD1236. For intrathecal delivery an indwelling atlanto-occipital intrathecal catheter was inserted into the intrathecal space, as described previously (F. A. Oladosu, B. P. Ciszek, S. C. O'Buckley, A. G. Nackley, Novel intrathecal and subcutaneous catheter delivery systems in the mouse. J Neurosci Methods 264, 119-128 (2016)). Briefly, with mice in the sternal recumbency a small incision was made at the nape of the neck followed by detachment of the muscles on either side of the external occipital crest to expose the A-O membrane. The membrane was incised and a 6 cm Alzet mouse intrathecal catheter (Alzet, Cupertino, Calif., USA) and polyurethane segments were gently guided 2.5 cm into the intrathecal space. The catheter was secured using 4-0 silk sutures (Oasis Medical, IL) and the exposed end of the catheter was sealed off with a stainless-steel plug and affixed to the upper back. Animals were injected immediately with vehicle or AZD1236 followed by a 10 μl PBS catheter flush. Injections were repeated every twice daily for the first 3 days after injury and drugs and vehicle reagents were delivered over 1 min time period using a Hamilton microlitre syringe (Hamilton Co, USA). Where specified intact animals with no surgical procedures were also used. All lesions were administered under 5% isofluorane induced inhalation anaesthesia, with 1.51/min O2. Pre- and post-injury analgesia was also provided.
DC crush injury was administered bilaterally at the T8 vertebral level as described previously (S. Surey, M. Berry, A. Logan, R. Bicknell, Z. Ahmed, Differential cavitation, angiogenesis and wound-healing responses in injured mouse and rat spinal cords. Neuroscience 275, 62-80 (2014); M. L. Read, S. Mir, R. Spice, R. J. Seabright, E. L. Suggate, Z. Ahmed, M. Berry, A. Logan, Profiling RNA interference (RNAi)-mediated toxicity in neural cultures for effective short interfering RNA design. J Gene Med 11, 523-534 (2009)). Briefly, calibrated watchmaker's forceps were separated by 0.5 mm and inserted through the dorsal cord meninges to a depth of 0.45 mm in mice and separated by 1 mm and inserted through the dorsal cord meninges to a depth of 1.0 mm in rats, and the DC were crushed for 3 seconds. AZD1236 or vehicle was administered twice daily by oral gavage or intrathecally, either immediately for the first 3 days or 24 hours after injury and treating twice daily until day 4 (i.e. 3 days of AZD1236 dosing). All experiments were performed with n=6 mice/group and repeated on at least 2-3 independent occasions (total=12-18 animals/group/test).
The lesion site+3 mm either side for mice and the lesion site+5 mm either side for the rat DC model were dissected out and the water content of the spinal cord (as a measure of oedema) was determined at 3 days after DC and CC SCI, as described previously (S. Li, C. H. Tator, Effects of MK801 on evoked potentials, spinal cord blood flow and cord edema in acute spinal cord injury in rats. Spinal Cord 37, 820-832 (1999)). Spinal cords containing the lesion site were weighed on aluminium foil, dried at 105° C. for 24 hr, and re-weighed. […]

[2] = tested on: mice with DC crush injury; assay: as above; assay type: in vivo, mouse; settings: IP, twice daily
[3] = tested on: J774A.1, RAW 264.7 and primary mouse peritoneal macrophages; assay: Transwell migration assay of macrophages; assay type: cell-based; settings: J774A.1 and RAW 264.7, 3 h
Method: J774A.1 cells (#TIB-67; ATCC, Middlesex, UK) were cultured in DMEM supplemented with 10% FBS, 100 U/ml penicillin, 100 μg/ml streptomycin, and 0.25 μg amphotericin B. Cells were seeded in T75 tissue-culture flasks and maintained at 37° C. and 5% CO2. RAW 264.7 cells (#TIB-71; ATCC) were maintained in DMEM containing 10% FBS.
Resident peritoneal cells were harvested from adult C57BL/6 mice (6-8 weeks old) by injection of 10 ml of PBS using a 21G needle into the peritoneal cavity and harvesting the cell suspension, as described previously (Rosas M, Davies L C, Giles P J, Liao C T, Kharfan B, Stone T C, et aL. The transcription factor Gata6 links tissue macrophage phenotype and proliferative renewal. Science 2014; 344(6184): 645-8). Peritoneal cells were then centrifuged at 100×g for 10 min and the cell pellet resuspended in DMEM/F12 medium. Cell were incubated at 37° C., for 2 h and non-adherent cells were removed by gentle washing. Cells were expanded in DMEM/F12 medium containing 10% FBS. For migration assays, cells were grown in RPMI containing 0.02% BSA for 24 h to obtain quiescent cells prior to using them in Transwell migration assays as described below.
Migration assays were performed with J774A.1, RAW 264.7 and primary mouse peritoneal macrophages in 6.5 mm Transwell plates (ThermoFisher) with 8 μm pore inserts, as described previously (Green et al., 2012). Briefly, inserts were coated with rat tail type I collagen and 1×10^5 cells (J774A.1, RAW 264.7 or primary mouse macrophages) were resuspended in chemotaxis buffer (RMPI 1640 plus 0.02% BSA, (termed RPMI from herein)) and added to the upper chamber and incubated with migration medium, with or without known chemotactic factors MCP-1 (100 ng/ml) and PMA (100 nM), or AZD1236, GM6001, SD2590 and MMP-9 Inhibitor I (all used at 1, 10, 100, 1000 ng/ml) added to the lower chamber. Cells were allowed to migrate through the insert membrane for 3 h at 37° C., before washing inserts with PBS. Non-migrating cells remaining on the upper surface were removed with a cotton swab whilst the migrated cells on the insert were fixed, stained with Diff-Quick (#26096, Electron Microscopy Science, Hatfield, UK), and mounted on glass slides. Migration was measured visually by counting using a light microscope at 40× magnification. The mean number of cells in 10 random fields were calculated for each treatment by an experimenter masked to the treatment conditions. A migration index was calculated by dividing the number of cells that migrated in response to the chemokine by the number of cells that migrated randomly (RPMI medium) with a reference index>1, indicating chemotaxis.

SCI-induced oedema = assay: Example 3: spinal cord water content with aquaporin-4 relocalisation inhibitors; settings: in vivo
Method: (§1) The lesion site+3 mm either side for mice and the lesion site+5 mm either side for the rat DC model were dissected out and the water content of the spinal cord (as a measure of oedema) was determined at 3 days after DC and CC SCI, as described previously (S. Li, C. H. Tator, Effects of MK801 on evoked potentials, spinal cord blood flow and cord edema in acute spinal cord injury in rats. Spinal Cord 37, 820-832 (1999)). Spinal cords containing the lesion site were weighed on aluminium foil, dried at 105° C. for 24 hr, and re-weighed. The percent water content was calculated as: water content (%)=[(wet weight-dry weight)/wet weight]×100%.
Using similar techniques to those described in Example 1, the water content in the spinal cord as a measure of injury-induced oedema was determined for various agents and aquaporin-4 inhibitors, namely TFP, PKAi, PKCi and TGN-020—see FIG. 21.

IL-1β, TNF-α and IL-6 [4] = assay: Proinflammatory pain markers after CC SCI in mice; assay type: in vivo, mouse; settings: oral gavage immediately after injury
Method: CC SCI was administered at the T7-T8 vertebral level after exposure of T6-T9 by laminectomy. The aneurysm clip applicator was oriented in a bilateral direction and an aneurysm clip with a closing force of 24 g was applied extradurally for 60 s, as described previously (A. S. Rivlin, C. H. Tator, Effect of duration of acute spinal cord compression in a new acute cord injury model in the rat. Surg Neurol 10, 38-43 (1978):E. Esposito, I. Paterniti, E. Mazzon, T. Genovese, M. Galuppo, R. Meli, P. Bramanti, S. Cuzzocrea, MK801 attenuates secondary injury in a mouse experimental compression model of spinal cord trauma. BMC Neurosci 12, 31 (2011)).
The urinary bladders were manually emptied twice daily until bladder function was regained. Adult male C57BL6 mice (25-30 g) (Charles River, Margate, UK) were randomly allocated to either: (1), Sham (control; laminectomy but no CC SCI); (2), CC SCI+vehicle; (3), CC SCI+200 mg/kg AZD1236 (oral); (4), CC SCI+5 mg/kg AZD1236 (it). All experiments were performed with n=6 mice/group and repeated on 3 independent occasions (total=18 mice/group/test).
The lesion site+5 mm either side (DC and CC SCI, n=6 mice/rats/group, 2 independent repeats (total n=12 mice/rats/group)) was dissected and rapidly frozen in liquid N2 and stored at −80° C. until required. […] The levels of mRNA of MMP-9, MMP-12, IL-1β, TNF-α and IL-6 were determined using pre-validated mouse primer sequences from complimentary DNA prepared from extracted mRNA and qRT-PCR was performed using a LightCycler PCR machine (Roche, Burgess Hill, UK) (M. L. Read, S. Mir, R. Spice, R. J. Seabright, E. L. Suggate, Z. Ahmed, M. Berry, A. Logan, Profiling RNA interference (RNAi)-mediated toxicity in neural cultures for effective short interfering RNA design. J Gene Med 11, 523-534 (2009)). […] Fold changes were computed using the ΔΔCt method (M. L. Read, S. Mir, R. Spice, R. J. Seabright, E. L. Suggate, Z. Ahmed, M. Berry, A. Logan, Profiling RNA interference (RNAi)-mediated toxicity in neural cultures for effective short interfering RNA design. J Gene Med 11, 523-534 (2009).

[5] = tested on: mice with DC crush injury; assay: CSF biomarkers of SCI (S100β, NSE, GFAP, pNF-H, NF-L); assay type: in vivo, mouse; settings: 3 d after injury
[6] = tested on: rats with DC crush injury; assay: Spinal cord water content after DC injury in rats; assay type: in vivo; settings: rat DC injury, oral, 3 days
Method: DC crush injury was administered bilaterally at the T8 vertebral level as described previously (S. Surey, M. Berry, A. Logan, R. Bicknell, Z. Ahmed, Differential cavitation, angiogenesis and wound-healing responses in injured mouse and rat spinal cords. Neuroscience 275, 62-80 (2014); M. L. Read, S. Mir, R. Spice, R. J. Seabright, E. L. Suggate, Z. Ahmed, M. Berry, A. Logan, Profiling RNA interference (RNAi)-mediated toxicity in neural cultures for effective short interfering RNA design. J Gene Med 11, 523-534 (2009)). […]
The efficacy of oral AZD3342 in the DC injury model in adult Sprague-Dawley rat was also assessed. […]
as §1, with “Spinal cords containing the lesion site were weighed on aluminium foil, dried at 105° C. for 24 hr, and re-weighed.” left out

IL-1β, TNF-α and IL-6 [7] = assay: Proinflammatory pain cytokines after DC injury in rats; assay type: in vivo; settings: rat DC injury, oral
Method: The efficacy of oral AZD3342 in the DC injury model in adult Sprague-Dawley rat was also assessed. Animals were divided into 6 groups: (1), Sham (control); (2), DC crush injury+Vehicle; (3), DC crush injury+15 mg/kg AZD3342; (4), DC crush injury+75 mg/kg […]; (5), DC crush injury+375 mg/kg AZD3342; and (6), DC crush injury+Melatonin. Animals were dosed twice daily with oral AZD3342 or vehicle with the experimenters masked to the treatment conditions. These experiments were performed with n=6 rats/group and repeated on 2-3 independent occasions (total n=12-18 rats/group/test).
The lesion site+5 mm either side (DC and CC SCI, n=6 mice/rats/group, 2 independent repeats (total n=12 mice/rats/group)) was dissected and rapidly frozen in liquid N2 and stored at −80° C. until required. […] The levels of mRNA of MMP-9, MMP-12, IL-1β, TNF-α and IL-6 were determined using pre-validated mouse primer sequences from complimentary DNA prepared from extracted mRNA and qRT-PCR was performed using a LightCycler PCR machine (Roche, Burgess Hill, UK) (M. L. Read, S. Mir, R. Spice, R. J. Seabright, E. L. Suggate, Z. Ahmed, M. Berry, A. Logan, Profiling RNA interference (RNAi)-mediated toxicity in neural cultures for effective short interfering RNA design. J Gene Med 11, 523-534 (2009)). […]

`COc1ccc(Cl)cc1C(=O)NCCc1ccc(S(=O)(=O)NC(=O)NC2CCCCC2)cc1` [Glibenclamide, reference compound] was tested, and the “spinal cord water content, comparison of MMP inhibitors (FIG. 4)” value [1] was “significantly reduced spinal cord water content”.

With `COC(=O)Nc1ccc2oc3cc(S(=O)(=O)N[C@@H](C(=O)O)C(C)C)ccc3c2c1` [MMP408] the “SCI-induced oedema with tool inhibitors singly or in combination (FIG. 3D)” value [2] was “suboptimal therapeutic benefits”.

With `CCCCCCCCCCCCCC(=O)O[C@@H]1[C@@H](C)[C@@]2(O)[C@@H](C=C(CO)C[C@]3(O)C(=O)C(C)=C[C@@H]23)[C@@H]2C(C)(C)[C@]12OC(C)=O` [PMA] the “macrophage migration (migration index, chemotaxis)” value [3] was “stimulated significant chemotaxis”.

With `Nc1nc2ccc(OC(F)(F)F)cc2s1` [Riluzole, reference compound] the “spinal cord water content, comparison of MMP inhibitors (FIG. 4)” value [1] was “significantly reduced spinal cord water content”.

`CN1CCN(CCCN2c3ccccc3Sc3ccc(C(F)(F)F)cc32)CC1` [TFP, trifluoperazine] was tested, and the “SCI-induced oedema, water content (FIG. 21)” value (SCI-induced oedema) was “suppress SCI-induced oedema”.

For `NCC1(CC(=O)O)CCCCC1` [gabapentin], the “proinflammatory pain markers after CC injury, comparison with pain medications (FIG. 7)” value (IL-1β, TNF-α and IL-6 [4]) was “much less effective”.

`COc1ccc2[nH]cc(CCNC(C)=O)c2c1` [melatonin, reference compound] was tested, and the “levels of S100β, NSE, GFAP, pNF-H and NF-L in CSF” value [5] was “marginally reduced”, the “SCI-induced edema (spinal cord water content)” value [6] was “marginal effect” and the “spinal cord water content, comparison of MMP inhibitors (FIG. 4)” value [1] was “significantly reduced spinal cord water content”. For the same compound, the “expression of proinflammatory pain cytokines” value (IL-1β, TNF-α and IL-6 [7]) was “small effect”.

In the case of `CC(C)C[C@H](CN)CC(=O)O` [pregabalin], the “proinflammatory pain markers after CC injury, comparison with pain medications (FIG. 7)” value (IL-1β, TNF-α and IL-6 [4]) was “much less effective”.

In the case of “MCP-1: known chemotactic factor, positive control in migration assay”, the “macrophage migration (migration index, chemotaxis)” value [3] was “stimulated significant chemotaxis”.
